Assay results taken from ChEMBL document CHEMBL1130479, “7-O-acylpaclitaxel analogues: potential probes to map the paclitaxel binding site” (1997).

Tests used:
[1] = test system: B16; test: The cytotoxic activity was measured against B16 melanoma cells, activity expressed as ED50 of compound/ ED50 of paclitaxel; format: functional, Mus musculus
[2] = The activity to inhibit microtubule assembly, activity expressed as ED50 of compound/ ED50 of paclitaxel; format: functional

| SMILES | Cytotoxicity [1] | Activity [2] |
| --- | --- | --- |
| CC(=O)O[C@H]1C(=O)[C@]2(C)[C@@H](OC(=O)c3ccc(N)cc3)C[C@H]3OC[C@@]3(OC(C)=O)[C@H]2[C@H](OC(=O)c2ccccc2)[C@]2(O)C[C@H](OC(=O)[C@H](O)[C@@H](NC(=O)c3ccccc3)c3ccccc3)C(C)=C1C2(C)C | 17 | 1.7 |
| CC(=O)O[C@H]1C(=O)[C@]2(C)[C@@H](OC(=O)c3ccccc3)C[C@H]3OC[C@@]3(OC(C)=O)[C@H]2[C@H](OC(=O)c2ccccc2)[C@]2(O)C[C@H](OC(=O)[C@H](O)[C@@H](NC(=O)c3ccccc3)c3ccccc3)C(C)=C1C2(C)C [PACLITAXEL C7 BENZOIC ACID ESTER] | 9.7 | 4.1 |
| CC(=O)O[C@H]1C(=O)[C@@]2(C)C([C@H](OC(=O)c3ccccc3)[C@]3(O)C[C@H](OC(=O)[C@H](O)[C@@H](NC(=O)c4ccccc4)c4ccccc4)C(C)=C1C3(C)C)[C@]1(OC(C)=O)CO[C@@H]1C[C@@H]2OC(=O)c1cccc(C(C)C)c1 (stereo not given in full) | – | > 32 |
| CC(=O)O[C@H]1C(=O)[C@]2(C)[C@@H](OC(=O)CI)C[C@H]3OC[C@@]3(OC(C)=O)[C@H]2[C@H](OC(=O)c2ccccc2)[C@]2(O)C[C@H](OC(=O)[C@H](O)[C@@H](NC(=O)c3ccccc3)c3ccccc3)C(C)=C1C2(C)C | 3.7 | 3.3 |
| CC(=O)O[C@H]1C(=O)[C@]2(C)[C@@H](OC(=O)c3cc(N=[N+]=[N-])cc([N+](=O)[O-])c3)C[C@H]3OC[C@@]3(OC(C)=O)[C@H]2[C@H](OC(=O)c2ccccc2)[C@]2(O)C[C@H](OC(=O)[C@H](O)[C@@H](NC(=O)c3ccccc3)c3ccccc3)C(C)=C1C2(C)C | – | > 24 |
| CC(=O)O[C@H]1C(=O)[C@]2(C)[C@@H](OC(=O)c3cccc(N(C)C)c3)C[C@H]3OC[C@@]3(OC(C)=O)[C@H]2[C@H](OC(=O)c2ccccc2)[C@]2(O)C[C@H](OC(=O)[C@H](O)[C@@H](NC(=O)c3ccccc3)c3ccccc3)C(C)=C1C2(C)C | – | 22 |
| CC(=O)O[C@H]1C(=O)[C@@]2(C)[C@H]([C@H](OC(=O)c3ccccc3)[C@]3(O)C[C@H](OC(=O)[C@H](O)[C@@H](NC(=O)c4ccccc4)c4ccccc4)C(C)=C1C3(C)C)[C@]1(OC(C)=O)CO[C@@H]1C[C@@H]2O [PACLITAXEL] | 1 | 1 |
| CC(=O)O[C@H]1C(=O)[C@]2(C)[C@@H](OC(=O)c3ccc(N=[N+]=[N-])cc3)C[C@H]3OC[C@@]3(OC(C)=O)[C@H]2[C@H](OC(=O)c2ccccc2)[C@]2(O)C[C@H](OC(=O)[C@H](O)[C@@H](NC(=O)c3ccccc3)c3ccccc3)C(C)=C1C2(C)C | 30 | 21 |
| CC(=O)O[C@H]1C(=O)[C@]2(C)[C@@H](OC(=O)c3cccc(N)c3)C[C@H]3OC[C@@]3(OC(C)=O)[C@H]2[C@H](OC(=O)c2ccccc2)[C@]2(O)C[C@H](OC(=O)[C@H](O)[C@@H](NC(=O)c3ccccc3)c3ccccc3)C(C)=C1C2(C)C | 7.1 | 1.5 |
| CC(=O)O[C@H]1C(=O)[C@]2(C)[C@@H](OC(=O)c3cc(N)cc([N+](=O)[O-])c3)C[C@H]3OC[C@@]3(OC(C)=O)[C@H]2[C@H](OC(=O)c2ccccc2)[C@]2(O)C[C@H](OC(=O)[C@H](O)[C@@H](NC(=O)c3ccccc3)c3ccccc3)C(C)=C1C2(C)C | 16 | 4.4 |
| CC(=O)O[C@H]1C(=O)[C@]2(C)[C@@H](OC(=O)CCl)C[C@H]3OC[C@@]3(OC(C)=O)[C@H]2[C@H](OC(=O)c2ccccc2)[C@]2(O)C[C@H](OC(=O)[C@H](O)[C@@H](NC(=O)c3ccccc3)c3ccccc3)C(C)=C1C2(C)C | 0.92 | 1.6 |
| CC(=O)O[C@H]1C(=O)[C@]2(C)[C@@H](OC(=O)c3cccc(N=[N+]=[N-])c3)C[C@H]3OC[C@@]3(OC(C)=O)[C@H]2[C@H](OC(=O)c2ccccc2)[C@]2(O)C[C@H](OC(=O)[C@H](O)[C@@H](NC(=O)c3ccccc3)c3ccccc3)C(C)=C1C2(C)C | – | > 24 |
